Assay [1] has as its target T1, 5-hydroxytryptamine receptor 1A (Homo sapiens, UniProt P08908).
T1 sequence (P08908 whole entry): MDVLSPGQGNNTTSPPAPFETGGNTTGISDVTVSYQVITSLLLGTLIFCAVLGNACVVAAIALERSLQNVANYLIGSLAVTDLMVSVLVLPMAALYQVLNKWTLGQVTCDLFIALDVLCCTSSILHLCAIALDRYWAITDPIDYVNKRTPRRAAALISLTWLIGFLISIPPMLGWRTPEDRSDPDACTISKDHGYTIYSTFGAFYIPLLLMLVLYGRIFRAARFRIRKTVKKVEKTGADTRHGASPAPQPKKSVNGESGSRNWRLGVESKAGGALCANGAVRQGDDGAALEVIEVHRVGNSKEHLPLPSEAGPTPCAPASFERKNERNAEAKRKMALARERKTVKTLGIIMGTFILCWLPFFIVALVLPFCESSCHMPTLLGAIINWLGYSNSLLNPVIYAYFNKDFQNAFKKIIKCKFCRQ
The assay can be described thus: Antagonist activity at 5-HT1A receptor (unknown origin).

For assay [2], the target named is T2, 5-hydroxytryptamine receptor 7 (Homo sapiens, UniProt P34969). Kind of assay: Antagonist activity at 5-HT7 receptor (unknown origin).
T2 sequence (P34969 whole entry): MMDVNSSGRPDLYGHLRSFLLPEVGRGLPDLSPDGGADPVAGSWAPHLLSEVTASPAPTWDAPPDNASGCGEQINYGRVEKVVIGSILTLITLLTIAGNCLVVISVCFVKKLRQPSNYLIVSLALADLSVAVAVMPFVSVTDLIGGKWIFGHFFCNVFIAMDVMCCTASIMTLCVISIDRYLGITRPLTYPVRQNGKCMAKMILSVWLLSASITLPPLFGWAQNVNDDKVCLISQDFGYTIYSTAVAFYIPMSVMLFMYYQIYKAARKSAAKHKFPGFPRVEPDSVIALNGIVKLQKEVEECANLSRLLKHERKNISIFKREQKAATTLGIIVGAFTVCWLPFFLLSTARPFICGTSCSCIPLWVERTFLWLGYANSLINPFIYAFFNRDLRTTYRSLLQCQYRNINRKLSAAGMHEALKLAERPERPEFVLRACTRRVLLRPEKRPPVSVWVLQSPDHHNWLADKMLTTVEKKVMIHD
Assay [3] has as its target T2, 5-hydroxytryptamine receptor 7. The assay can be described thus: biochemical. It counts as cell-based.
Assay [4] has as its target 5-hydroxytryptamine receptor 7 (Rattus norvegicus, UniProt P32305). The assay can be described thus: Displacement of [3H]5-CT from recombinant rat 5-HT7 receptor expressed in HEK293 cells. It is filed as cell-based. For orientation: Loss of bound radioactivity is the signal in a displacement assay; it reports binding, not function.

5-hydroxytryptamine receptor 7 (Rattus norvegicus, UniProt P32305), sequence (P32305 whole entry): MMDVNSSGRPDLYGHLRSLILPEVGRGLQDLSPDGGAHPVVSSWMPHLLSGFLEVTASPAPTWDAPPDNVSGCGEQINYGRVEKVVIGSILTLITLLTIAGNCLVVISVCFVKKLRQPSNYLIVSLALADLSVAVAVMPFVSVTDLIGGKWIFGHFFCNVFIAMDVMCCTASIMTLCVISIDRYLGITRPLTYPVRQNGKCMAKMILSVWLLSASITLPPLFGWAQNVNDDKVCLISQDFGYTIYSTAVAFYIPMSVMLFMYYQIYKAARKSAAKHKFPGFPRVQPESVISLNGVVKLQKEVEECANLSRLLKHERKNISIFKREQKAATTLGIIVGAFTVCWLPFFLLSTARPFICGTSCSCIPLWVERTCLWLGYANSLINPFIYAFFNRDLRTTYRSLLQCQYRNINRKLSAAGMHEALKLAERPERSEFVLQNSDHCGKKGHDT

The term Ki denotes the dissociation constant of the complex between target and ligand, obtained from inhibition or displacement. With `CC(Nc1nc(N)nc(NCCOc2ccc(F)cc2)n1)c1ccc(F)cc1` (stereo not drawn), in assay [1], the Ki is > 100 nM.

Regarding `CC(Nc1nc(N)nc(NCCOc2ccccc2)n1)c1ccccc1` (stereo not drawn), the Ki in assay [2] was 3 nM; in assay [1], > 100 nM.

On to `COc1cccc(OC)c1-c1cccc(CCN(C)C)c1`, for which the inhibition constant Ki in assay [1] was 4830 nM.

With `CCN(CC)C(=O)[C@@H]1C=C2c3cccc4[nH]c(Br)c(c34)C[C@H]2N(C)C1`, the affinity in assay [3] corresponds to a Ki of 31.6 nM.

In the case of `COc1ccccc1N1CCN(Cc2cn(-c3cccc4ccccc34)c3ccccc23)CC1`, in assay [1], the Ki was determined as 700 nM.

`O=C1Cc2ccccc2N1CC/C=C/CCN1CCc2ccccc2C1`: the Ki in assay [1] was > 1000 nM.

As for `CCC1(CCCCN2CCN(c3ccc(Cl)cc3)CC2)C(=O)Nc2cc(F)ccc21` (stereo not drawn), the inhibition constant Ki in assay [1] came out at 1610 nM.

Take `Cc1nn(C)c(C)c1-c1ccc(O)c(CCN(C)C)c1`: the inhibition constant (Ki) in assay [1] was > 10000 nM.

`COc1ccc(S(=O)(=O)NCCCN2CCN(c3ccccc3OC)CC2)cc1` gave an inhibitory constant (Ki) in assay [1] of 272 nM.

In the case of `O=S(=O)(c1ccc2cc[nH]c2c1)N1CCC[C@H]1CCN1CCC(Oc2ccc(Cl)cc2)CC1`, the values for the inhibition constant Ki in assay [2] and in assay [1] were 1.99 nM and 562 nM, respectively.

For `CNC(=O)Cn1c2c(c3ccccc31)CN(CCCCC13CCCc4cccc(c41)NC3=O)CC2` (stereo not drawn), the figures for the Ki in assay [2] and in assay [1] were 3.54 nM and 128 nM, respectively.

A word on the IC50: it is the concentration that gives 50% inhibition. The low end stands for greater potency in that assay, the high end for weaker potency in that assay. For the compound `CCOc1ccccc1N1CCN(CCCCC(=O)NCc2nc3cc(F)ccc3c(=O)n2-c2ccccc2)CC1`, half-maximal inhibition in assay [1] (IC50) required 500 nM.

With `Clc1ccc(-c2nn(Cc3ccccc3)c3c2CCNCC3)cc1` [JNJ-18038683 FREE BASE], the figures for the Ki in assay [4] and in assay [1] were 316 nM and 6.5 nM, respectively.

For `Cc1cccc(S(=O)(=O)N(C)[C@H](C)CCN2CCC(C)CC2)c1` [SB-258719], the Ki in assay [1] was > 3000 nM.

The values are drawn from ChEMBL document CHEMBL4342419 (Eur J Med Chem, 2019).
